Assay [1] has as its system three-layered miniature bladders. The assay is described as follows: Cell proliferation in three-layered miniature bladders under Hh pathway manipulation. To be noted: 50 μM Vismodegib or 100 nM SAG vs DMSO, 7 days. It counts as cell-based, mouse. How it is done: (§1) To generate normal bladder organoids with stroma, normal bladder organoids cultured for a long time (>6 months) were mixed with mouse embryonic fibroblasts (MEFs) and endothelial cells (HULEC, ATCC) at 3.75×10^4 cells/μL and 5×10^3 cells/μL, respectively, along with 3 to 4 μL of Matrigel. Before additional analysis, these bladder organoids with stroma were cultured in an organoid medium in a spinning bioreactor for 7 days. The 12-well version of the spinning bioreactor was manufactured by 3D printing according to the method described in Qian, X. et al. Brain-Region-Specific Organoids Using Mini-bioreactors for Modeling ZIKV Exposure. Cell 165, 1238-1254, doi:10.1016/j.cell. 2016.04.032 (2016). In brief, individual components such as a plate cover (Project MJP 2500, 3D Systems, USA), a rotating shaft (Single Plus, Cubicon, Korea), a fixed rod (Single Plus, Cubicon, Korea) and a gear (Single Plus, Cubicon, Korea) were printed using a 3D printer in a stackable version, and the components were assembled to manufacture a spinning bioreactor. […]
(§2) Normal bladder organoids were treated with 50 μM Vismodegib (Abmole), 100 nM SAG (Millipore) or DMSO and cultured in a spinning bioreactor for 7 days. […] Capase-3/7-stained cells in the bladder tumor organoids were counted based on green fluorescence signals, and dose-response curves were generated using GraphPad Prism ver.6. […]

The test system of assay [2] is 3D bioprinted patient-derived bladder tumor organoids. The assay is described as follows: Tumor growth of 3D bioprinted patient-derived bladder tumor organoids treated with SAG or FK506. The class given is cell-based, human.
Description: Tumor cells derived from patient-derived bladder tumor organoids were embedded in 40 μL Matrigel at a density of 5×10^5 cells/mL, and cultured in an organoid culture medium for 10 days. To prepare a bio-ink mixture for the reconstitution of tumor organoids with stroma by 3D bioprinting, 6 wells containing the embedded tumor organoids were treated with 0.5 mg/mL of a collagenase/dispase solution at 37° C. for 30 minutes, washed and centrifuged. The collected organoids were resuspended in 1 mL Matrigel (Growth Factor Reduced) containing patient-derived CAFs and HULECs at 4×10^7 cells/mL and 4×10^6 cells/mL, respectively. The reconstituted bio-ink was put into a sterilized 10 mL syringe with a 20-gauge needle, and stored on ice for less than 5 minutes before printing. A jet-type 3D printer (in vivo, Rokit, Korea) was used to reconstitute tumor organoids with stroma as described above. A G-code based script was written by Creator K software (Rokit, Korea) to print a 5×6 array of 10 μL drops. Each drop was dispensed on a parafilm at 8-mm intervals by extrusion. […]
Assay [3] has as its system reconstituted bladder organoids with stroma. The assay is described as follows: Cell proliferation in reconstituted bladder organoids with stroma under Hh pathway manipulation. It counts as cell-based, mouse. Conditions: 50 μM Vismodegib or 100 nM SAG vs DMSO, 7 days. Here is the method: as §1, §2
Assay [4] relates to BBN-induced mouse bladder tumor organoids. The assay is described as follows: Growth of BBN-induced mouse bladder tumor organoids treated with SAG or FK506. The class given is cell-based. To be noted: reconstituted mouse tumor organoids with stroma.
Assay [5] concerns patient-derived bladder tumor organoids. The assay is described as follows: Growth of patient-derived bladder tumor organoids with or without tumor stroma treated with Hh or Bmp agonist. It counts as cell-based, human. Conditions: 300 nM SAG, 7 days.
Description: Tumor tissues obtained from patients were washed with DPBS, and then washed twice with DMEM supplemented with 10% FBS. The washed tumors were minced and incubated in DMEM containing 10% FBS and collagenase I and II (20 mg/mL each) at 37° C. for 1 hour and ground for 5 minutes every 30 minutes. The isolated tissues were spun down at 1,500 rpm for 5 minutes, resuspended in ACK lysis buffer, and then incubated for 5 minutes at room temperature. Dissociated clusters were washed with DMEM containing 10% FBS and filtered through a 100 μm cell strainer. The dissociated cell clusters were spun down, resuspended in Matrigel (Growth Factor reduced) and plated in the middle of one well of a 6-well plate. The plated drop was solidified in an incubator at 37° C. for 15 minutes, and a 2.5 mL organoid medium [advanced DMEM/F-12 supplemented with 10 mM HEPES (pH 7.4), 10 mM nicotinamide, 1 mM N-acetyl-L-cysteine, GlutaMAX, 1% penicillin/streptomycin, 50 ng/mL mouse EGF, 0.5×B-27, 1 mM A8301 and 10 mM Y-27632] was added to the well. The medium was replaced once every 2 to 3 days. For passaging, 1 mg/mL collagenase/dispase was added to the medium, followed by incubation for 1 hour at 37° C. to digest the Matrigel. Subsequently, organoids were centrifuged at 1,500 rpm for 3 minutes, washed with PBS, and then spun down. Then, 0.05% trypsin-EDTA (Welgene) was added, organoids were incubated at 37° C. for 5 minutes, followed by mechanical grinding into small cells by pipetting. The organoids were passaged in a 1:3 or 1:4 ratio every 1 to 2 weeks.
To generate patient-derived tumor organoids with stroma, human tumor organoids were cultured for 10 days, and mixed with stromal components containing patient-derived CAFs and HULECs at concentrations of 5×10^4 cells/μL and 4×10^3 cells/μL, respectively, in Matrigel. And then, 5 μL drops of tumor organoids with stroma were cultured in an organoid medium in a spinning bioreactor for 7 days. […]
Assay [6] concerns 3D bioprinted patient-derived bladder tumor organoids. Kind of assay: Tumor cell apoptosis (caspase3) in 3D bioprinted patient-derived bladder tumor organoids treated with cisplatin. It counts as cell-based, human. Conditions: luminal and basal tumor-derived printed tumor organoids. Here is the method:
Normal bladder organoids were treated with 50 μM Vismodegib (Abmole), 100 nM SAG (Millipore) or DMSO and cultured in a spinning bioreactor for 7 days. Bladder tumor organoids were treated with 300 nM SAG, 5 μM FK506 (Cayman Chemical) or DMSO, and cultured in a spinning bioreactor for 7 days. Human bladder tumor organoids were cultured in an organoid medium for 7 days in a spinning bioreactor before treatment with chemotherapeutic drugs. Subsequently, tumor organoids were cultured for 48 hours in the presence of cisplatin (0, 0.2, 0.5, 1, 2, 5, 10, 50 and 100 μm, Sigma), gemcitabine (0, 0.2, 0.5, 1, 2, 5, 10, 50 and 100 μM, Sigma) or mitomycin C (0, 0.2, 0.5, 1, 2, 5, 10, 50 and 100 μM, Sigma). To produce dose-response curves for the three chemotherapeutic drugs, cell viability was assayed using a CellEvent™ Caspase-3/7 Green Detection Reagent (Thermo Fisher) according to the manufacturer's instructions. Forty-eight hours after treatment with cell therapeutic agent, bladder tumor organoids were fixed in 4% PFA at 4° C. for 15 minutes, washed with PBS three times, cultured in 30% sucrose overnight, and embedded in an OCT compound. Capase-3/7-stained cells in the bladder tumor organoids were counted based on green fluorescence signals, and dose-response curves were generated using GraphPad Prism ver.6. […]

“Also recorded” adds a separate entry of the source.

As to `CNC1CCC(N(Cc2cccc(-c3ccncc3)c2)C(=O)c2sc3ccccc3c2Cl)CC1` (stereo not drawn) [SAG], the “proliferation of epithelial cells and stromal cells” value in assay [1] was “increases”; in assay [3] it was “significant increase”. Moreover, the tumor growth entry in assay [2] (bioprinted basal, only in the presence of stroma) is “significantly inhibited”; in assay [2] (bioprinted, luminal P-1 tumor, regardless of tumor stroma), “does not exhibit a significant change”; in assay [4], “inhibited”. Further, in assay [5] (basal P-2 and P-3, in the presence of tumor stroma), the “growth of reconstituted tumor organoids of basal subtypes” value was “significantly reduced”. For the same molecule, the “response of basal subtype tumor organoids” value in assay [5] (basal subtype, without tumor stroma) is given as “do not respond”. Further, the “response of reconstituted luminal tumor organoids” value in assay [5] (reconstituted luminal tumor organoids) was “do not respond”.

As for `CS(=O)(=O)c1ccc(C(=O)Nc2ccc(Cl)c(-c3ccccn3)c2)c(Cl)c1` [Vismodegib], the figures for the “proliferation of epithelial cells and stromal cells” value in assay [1] and in assay [3] were “decreases; also recorded: reduces” and “significant decrease”, respectively.

With `N.N.[Cl][Pt][Cl]` [cisplatin], the “tumor cell apoptosis response” value in assay [6] (reconstituted with tumor stroma) is recorded as “significantly reduced”. Further, in assay [6] (without tumor stroma), the tumor cell apoptosis result is given as “increased”.

The values above are taken from patent US20210079358A1, “ASSEMBLOID - 3D MIMETIC TISSUE STRUCTURE BASED ON PATIENT- DERIVED MULTIPLE CELL TYPES AND METHOD OF MANUFACTURING THE SAME” (POSTECH Research and Business Development Foundation, priority 2019, published 2021).
